Assay results reported in ChEMBL document CHEMBL1201862, “PubChem BioAssay data set” (2004).
Active and inactive are the calls of the source. Rule as the data show it, for most assays here: actives have a measured EC50 and inactives only a lower limit.

Assays:
[1] = system: Streptococcus sp. 'group A'; experiment: Streptococcus pyogenes SK(-)GAS viability under kanamycin – luminescence, BacTiterGlo, confirmation, counter-screen for streptokinase expression inhibitor project, dose response (AID 1900); type: functional, organism-based
Streptococcus [2] = experiment: Luminescence Microorganism-Based Dose Response Follow up to Identify Compounds Cytotoxic to Streptococcus. [Related pubchem assays: 1677 (Project Summary), 1915, 1914, 1902 (Retest at Dose), 1900 (Counter Screen), 1662 (Primary HTS)]; type: functional, organism-based
Streptokinase A = biological target: T1, Streptokinase A (Streptococcus pyogenes serotype M1, UniProt P10520); experiment: viability-normalized secreted streptokinase activity reduction – plasminogen activation absorbance, OD405, dose response (AID 1914); type: functional, Streptococcus pyogenes M1 GAS;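 also: secreted streptokinase activity via plasminogen activation per viability signal from cell pellet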
T1 sequence (P10520 whole entry): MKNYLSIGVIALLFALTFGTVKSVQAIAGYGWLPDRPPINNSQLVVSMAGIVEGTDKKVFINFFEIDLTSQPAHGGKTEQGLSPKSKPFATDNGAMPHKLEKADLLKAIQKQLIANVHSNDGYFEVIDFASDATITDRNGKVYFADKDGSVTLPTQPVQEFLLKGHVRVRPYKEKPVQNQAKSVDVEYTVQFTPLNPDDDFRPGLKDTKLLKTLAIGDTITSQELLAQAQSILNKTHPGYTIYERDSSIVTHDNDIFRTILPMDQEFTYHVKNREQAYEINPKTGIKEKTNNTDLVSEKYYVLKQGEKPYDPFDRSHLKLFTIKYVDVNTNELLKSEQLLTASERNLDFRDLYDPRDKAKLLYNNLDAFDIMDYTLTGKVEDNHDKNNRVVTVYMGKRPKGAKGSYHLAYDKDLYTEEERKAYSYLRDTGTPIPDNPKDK

Streptococcus [3] = experiment: GAS UMAA2166 growth inhibition – luminescence, BacTiterGlo, counter-screen for streptokinase expression inhibitor project, dose response (AID 1915); type: functional, organism-based;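 also: potency for reduction of bacterial viability or growth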
NS3 = NS3 (Hepatitis C virus, UniProt A3EZJ3); experiment: PubChem AID 2173; set-up: species or system Hepacivirus hominis
Sequence of NS3 (A3EZJ3 whole entry, the tested form may be a part): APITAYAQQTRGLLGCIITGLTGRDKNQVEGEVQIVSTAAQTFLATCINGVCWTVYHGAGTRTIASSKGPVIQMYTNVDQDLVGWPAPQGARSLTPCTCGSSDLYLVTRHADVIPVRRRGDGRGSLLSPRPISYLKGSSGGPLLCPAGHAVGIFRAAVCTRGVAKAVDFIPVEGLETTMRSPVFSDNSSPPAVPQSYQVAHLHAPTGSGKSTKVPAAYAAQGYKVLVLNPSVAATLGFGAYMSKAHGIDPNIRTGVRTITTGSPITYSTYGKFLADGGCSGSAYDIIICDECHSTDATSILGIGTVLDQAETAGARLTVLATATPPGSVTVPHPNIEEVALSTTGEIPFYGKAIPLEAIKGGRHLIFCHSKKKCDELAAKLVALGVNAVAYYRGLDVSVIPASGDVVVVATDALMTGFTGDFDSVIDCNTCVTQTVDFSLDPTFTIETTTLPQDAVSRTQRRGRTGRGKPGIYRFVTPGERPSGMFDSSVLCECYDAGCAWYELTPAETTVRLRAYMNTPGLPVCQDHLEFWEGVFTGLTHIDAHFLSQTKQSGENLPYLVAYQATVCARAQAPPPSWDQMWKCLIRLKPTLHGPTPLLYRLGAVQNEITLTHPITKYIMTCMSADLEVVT

[4] = biological target: T2, RNA-binding protein pos-1 (Caenorhabditis elegans, UniProt G5EF15); experiment: disruptors of C. elegans POS-1 RNA interaction – biochemical, fluorescence polarization, dose response (AID 1964);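 also: purified POS-1 fused to maltose binding protein made in E. coli; potency of compounds blocking POS-1 binding to fluorescent RNA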
T2 sequence (G5EF15 whole entry): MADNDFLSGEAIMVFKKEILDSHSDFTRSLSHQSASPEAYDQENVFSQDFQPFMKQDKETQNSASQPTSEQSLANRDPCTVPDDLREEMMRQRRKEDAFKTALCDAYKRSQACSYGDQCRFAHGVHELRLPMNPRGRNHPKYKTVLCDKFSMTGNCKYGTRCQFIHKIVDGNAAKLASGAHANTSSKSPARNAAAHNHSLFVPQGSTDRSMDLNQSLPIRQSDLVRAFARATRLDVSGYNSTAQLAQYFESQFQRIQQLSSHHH

[5] = biological target: T3, Zinc finger protein mex-5 (Caenorhabditis elegans, UniProt Q9XUB2); experiment: potency of MEX-5 RNA-binding blockers – biochemical, C. elegans, fluorescence polarization, dose response (AID 1960)
T3 sequence (Q9XUB2 whole entry): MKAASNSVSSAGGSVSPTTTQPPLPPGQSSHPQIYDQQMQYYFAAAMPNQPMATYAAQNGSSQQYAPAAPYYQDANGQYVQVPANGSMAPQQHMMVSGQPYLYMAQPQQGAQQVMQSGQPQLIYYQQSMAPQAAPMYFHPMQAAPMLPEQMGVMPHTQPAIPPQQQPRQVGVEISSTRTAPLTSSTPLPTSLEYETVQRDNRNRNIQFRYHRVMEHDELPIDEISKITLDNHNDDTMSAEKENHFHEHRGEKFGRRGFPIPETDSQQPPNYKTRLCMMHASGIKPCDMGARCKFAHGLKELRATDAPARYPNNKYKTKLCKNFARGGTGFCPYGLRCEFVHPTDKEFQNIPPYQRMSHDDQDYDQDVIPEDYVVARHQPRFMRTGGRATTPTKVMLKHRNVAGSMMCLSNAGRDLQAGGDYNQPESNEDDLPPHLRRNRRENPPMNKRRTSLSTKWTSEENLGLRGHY

[6] = Trypanosoma cruzi growth suppression in host cells – NIH3T3 host cells, beta-gal luminescence, confirmation (AID 2044); type: functional, cell-based;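 also: intracellular parasites grown in NIH/3T3 mouse fibroblasts as host cells; luminescent beta-galactosidase reporter signal from transgenic T. cruzi replicating inside host cells; inhibitors lower the luminescence signal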
[7] = NIH3T3 cell viability loss – ATP luminescence, mouse fibroblasts, counter-screen, dose response (AID 2010); type: functional, cell-based;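 also: cells exposed to compound for about 90 hours before reading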
Salmon testes DNA = experiment: acridine orange-DNA binding displacement – biochemical, fluorescence polarization, cherry-picked samples, set 2, artefact control for KSHV LANA DNA-binding inhibitor project, dose response (AID 504727); set-up: species or system Salmonidae
[8] = mitochondrial function rescue without frataxin homolog – Friedreich's ataxia, plus single-dose screen, dose response (AID 1465); type: functional;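 also: yeast depleted of Yfh1p frataxin homolog grown on glycerol needing respiration; WST-1 tetrazolium dye reduction as measure of cellular dehydrogenase metabolic activity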
[9] = biological target: Melanin-concentrating hormone receptor 1 (Homo sapiens, UniProt Q99705); experiment: Fluorescence-based counterscreen for antagonists of the G-protein coupled receptor 7 (GPR7): cell-based high throughput dose response assay to identify antagonists of the melanin-concentrating hormone receptor 1 (MCHR1).; type: functional
Sequence of Melanin-concentrating hormone receptor 1 (Q99705 whole entry): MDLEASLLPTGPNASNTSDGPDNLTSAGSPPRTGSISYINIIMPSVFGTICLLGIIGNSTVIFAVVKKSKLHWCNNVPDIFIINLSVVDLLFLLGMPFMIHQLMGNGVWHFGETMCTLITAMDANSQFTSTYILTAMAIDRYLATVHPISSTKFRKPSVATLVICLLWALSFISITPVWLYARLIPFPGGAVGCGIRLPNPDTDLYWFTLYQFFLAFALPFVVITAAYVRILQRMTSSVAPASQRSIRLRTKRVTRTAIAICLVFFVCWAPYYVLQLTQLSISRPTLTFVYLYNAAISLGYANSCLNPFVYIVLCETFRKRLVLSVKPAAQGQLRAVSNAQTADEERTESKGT

[10] = biological target: Neuropeptide Y receptor type 2 (Homo sapiens, UniProt P49146); experiment: IC50 for human NPY-Y2 blockade – cell-based, counter-screen for NPY-Y1 antagonist project, dose response (AID 1278); type: functional
Sequence of Neuropeptide Y receptor type 2 (P49146 whole entry): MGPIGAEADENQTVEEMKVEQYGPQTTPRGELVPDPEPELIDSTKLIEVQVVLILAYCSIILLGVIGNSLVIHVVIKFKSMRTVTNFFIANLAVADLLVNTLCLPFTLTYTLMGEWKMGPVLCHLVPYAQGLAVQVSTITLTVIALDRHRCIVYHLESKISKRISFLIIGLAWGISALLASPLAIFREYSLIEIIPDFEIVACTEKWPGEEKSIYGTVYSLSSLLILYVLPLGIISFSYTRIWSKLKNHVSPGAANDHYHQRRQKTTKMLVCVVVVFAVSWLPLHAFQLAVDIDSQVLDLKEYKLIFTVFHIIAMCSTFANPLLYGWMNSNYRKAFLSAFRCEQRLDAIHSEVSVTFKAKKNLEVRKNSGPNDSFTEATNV

[11] = biological target: Neuropeptide Y receptor type 1 (Homo sapiens, UniProt P25929); experiment: IC50 of human NPY-Y1 blockers – cell-based, dose response (AID 1277); type: functional
Sequence of Neuropeptide Y receptor type 1 (P25929 whole entry): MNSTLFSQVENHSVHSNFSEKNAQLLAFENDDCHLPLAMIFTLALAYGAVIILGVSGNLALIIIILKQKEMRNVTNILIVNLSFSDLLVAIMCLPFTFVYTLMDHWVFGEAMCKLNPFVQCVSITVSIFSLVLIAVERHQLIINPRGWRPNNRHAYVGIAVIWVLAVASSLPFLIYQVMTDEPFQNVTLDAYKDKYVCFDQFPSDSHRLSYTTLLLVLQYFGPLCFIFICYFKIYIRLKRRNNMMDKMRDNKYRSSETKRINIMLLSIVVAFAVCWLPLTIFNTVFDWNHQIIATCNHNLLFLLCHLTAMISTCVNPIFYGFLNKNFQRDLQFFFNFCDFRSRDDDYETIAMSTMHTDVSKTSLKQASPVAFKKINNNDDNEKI

[12] = biological target: Neurotensin receptor type 1 (Homo sapiens, UniProt P30989); type: functional;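 also: Image-based confirmatory dose-response assay measuring agonist activity at NTR1; NTR1-expressing U2OS osteosarcoma cells imaged for beta-arrestin GFP spot formation; agonist potency where compounds increase beta-arrestin recruitment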
Sequence of Neurotensin receptor type 1 (P30989 whole entry): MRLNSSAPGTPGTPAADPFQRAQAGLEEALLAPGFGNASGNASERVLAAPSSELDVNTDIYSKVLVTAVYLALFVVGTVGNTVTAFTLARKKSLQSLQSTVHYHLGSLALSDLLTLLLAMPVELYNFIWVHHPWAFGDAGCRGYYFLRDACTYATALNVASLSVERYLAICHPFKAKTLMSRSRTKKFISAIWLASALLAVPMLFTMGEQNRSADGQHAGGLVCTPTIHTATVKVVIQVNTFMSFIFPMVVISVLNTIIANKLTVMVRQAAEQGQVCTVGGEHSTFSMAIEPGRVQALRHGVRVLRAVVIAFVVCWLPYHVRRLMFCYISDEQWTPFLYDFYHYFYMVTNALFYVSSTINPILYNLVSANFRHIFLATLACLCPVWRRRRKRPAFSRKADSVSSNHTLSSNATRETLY

In the case of `COc1ccc(-c2csc3ncnc(N4CCN(c5ccccc5Cl)CC4)c23)cc1`, the EC50 [1] is reported as 82.6 µM (active), the EC50 (Streptococcus [2]) is reported as > 500 µM (not active) and the EC50 (Streptokinase A) is reported as 3.7 µM (active). The EC50 (Streptococcus [3]) was > 150 µM (not active).

In the case of `Cc1cc(Cl)ccc1Oc1ccccc1C(=O)CC#N`, the IC50 (NS3) is reported as 3.54 µM (active).

For `COc1cccc(OCCCn2cc(/C=C3/C(=N)N4C=C(C)SC4=NC3=O)c3ccccc32)c1`, the EC50 [4] was 108 µM (active), the EC50 [5] was 109 µM (active) and the EC50 [6] was 1.34 µM (active). For the same compound, the EC50 [7] was > 60 µM (not active) and the AC50 (Salmon testes DNA) was 65.9 µM (active).

With `CCOc1ccc2nc(NN=C3C(=O)NC(=O)NC3=O)sc2c1` the EC50 [8] was > 100 µM (active).

For `Cc1ccc(C2C3=C(NCCN=C3c3ccccc3)C(=O)N2c2ccccc2)cc1` (stereo not given), the IC50 [9] was > 14.6 µM (not active).

In the case of `COc1ccc(C2N(c3ccc(Cl)cc3)N=C(C(C)=O)N(C)N2C(C)=O)cc1` (stereo not given), the IC50 [10] is reported as > 35 µM (not active) and the IC50 [11] is reported as > 35 µM (not active).

For `O=C(COC(=O)/C=C/C(=O)OCC(=O)NC12CC3CC(CC(C3)C1)C2)NC12CC3CC(CC(C3)C1)C2`, the EC50 [12] was > 40 µM (inactive).
